Columns and labels:
Assay type in all cases: cell-based
[1] = test system: sulfate-reducing bacteria (SRB); test: SRB surviving 3 h treatment, serial dilution enumeration (NACE TMO 194-2004)
From the text: Following the treatment, an aliquot of each sample was serially diluted (10-fold dilutions) into culture media for SRB to enumerate the survivors according to NACE TMO 194-2004.

[2] = test system: bacterial-fouled water taken from an oil production site; test: Turbidity of bacterial-fouled oilfield water culture in synthetic brine; settings: 600 nm after 24 hours
Description: A sample of a bacterial-fouled water was taken from an oil production site and used as a culture base for testing of cinnamaldehyde as a bactericide. The culture was introduced into a synthetic brine (similar to that used for oilfield operations) and turbidity was measure at 600 nm after 24 hours.

[3] = test system: acid-producing bacteria (APB); test: Mitigation of APB growth in seawater, dilution series bottles; settings: 600 ppm product; seawater 3% TDS; contact 20 hours; three replicate columns
Description: Various biocidal blends with only 50% THPS, only XC800, and different mixtures were tested, along with a control, at preventing or mitigating APB growth. The media was seawater with 3% total dissolved solids (TDS). Contact times were 20 hours and the reaction volume was 50 ml, using 8 bottles per dilution series string. APB growth was measured from 0 to 4 in logarithmic units.
In FIG. 1, it is expected that the mitigation of APB growth would generally follow a straight line (dashed in FIG. 1) from 600 ppm THPS (50%) to 600 ppm XC800.

## O=CC=Cc1ccccc1 [Cinnamaldehyde, cinnamaldehyde]
[1]; THPS 0 ppm, cinnamaldehyde 25 ppm
  SRB Surviving Treatment: ≧10^10 SRB/ml
[1]; THPS 0 ppm, cinnamaldehyde 50 ppm
  SRB Surviving Treatment: ≧10^10 SRB/ml
[2]; cinnamaldehyde 50 ppm
  Turbidity: 1.854
[2]; cinnamaldehyde 125 ppm
  Turbidity: 0.973
[2]; cinnamaldehyde 250 ppm
  Turbidity: 0.175
[2]; cinnamaldehyde 375 ppm
  Turbidity: 0.103
[2]; cinnamaldehyde 500 ppm
  Turbidity: 0.113

## tetrakis hydroxymethyl phosphonium sulfate [50% THPS only]
[3]
  APB growth (0 to 4): 1 logarithmic units

## tetrakis hydroxymethyl phosphonium sulfate [THPS]
[1]; THPS 50 ppm, cinnamaldehyde 0 ppm
  SRB Surviving Treatment: ≧10^10 SRB/ml
[1]; THPS 100 ppm, cinnamaldehyde 0 ppm
  SRB Surviving Treatment: ≧10^10 SRB/ml
[1]; THPS 250 ppm, cinnamaldehyde 0 ppm
  SRB Surviving Treatment: 10^5 SRB/ml

Reference: patent US20150038471A1, “PROCESS FOR PREVENTING OR MITIGATING BIOFOULING” (Baker Hughes Incorporated, priority 2010, published 2015)
